No end group written: not given here.
Experiments:
MRSA = format: cell-based, Staphylococcus aureus
Experimental: (§1) Experiments were conducted in which the full-length epidermicin peptide (51 amino acids, SEQ ID NO:10) was truncated to yield the derivatives shown in FIG. 1 (SEQ ID NOs:11 to 19). NI011-37 (SEQ ID NO:11) Is the region most similar to other peptides in the public domain, NI0138-51 (SEQ ID NO:12) is the region that is most unique with respect to other peptides in the public domain. All other truncations have been carried out by removing residues from the amino-terminal end of the peptide to each lysine residue (K). Lysine is important in antimicrobial peptides as it contributes to the net positive charge, which is thought to have a key role in the mode of action of ‘cationic’ peptides, like NI01 (SEQ ID NO:10).

S. epidermidis = format: cell-based
Experimental: as §1

S. aureus 1195 = format: cell-based
Experimental: as §1

S. saprophyticus = format: cell-based
Experimental: as §1

S. Hominis = format: cell-based
Experimental: as §1

With KQIKKLWA [SEQ ID NO:19] the MIC (MRSA) was >64 µg/mL, the MIC (S. epidermidis) was >64 µg/mL and the MIC (S. aureus 1195) was 16 µg/mL. The MIC (S. saprophyticus) was 16 µg/mL and the MIC (S. Hominis) was >64 µg/mL.

Source: patent US10273272B2, “Antimicrobial peptides” (Amprologix Limited, priority 2014, dated 2019)
